Measured values published in patent US20160090556A1, “PRODUCTS COMPRISING MALODOR REDUCTION MATERIALS” (The Procter & Gamble Company, priority 2014, published 2016).
Like-named read-outs stand apart in the source and are kept apart here.

Experiment: Liquid dish neat product liquid-air partition coefficient
Assay type: physicochemical
Conditions: for Comment Code: Log of liquid dish neat product liquid-air partition coefficient: code letters K, L
[1] = class code letter within Comment Code

Structure (SMILES)	Log of liquid dish neat product liquid-air partition coefficient (Comment Code K/L) [1]	Log of liquid dish neat product liquid-air partition coefficient (Comment Code K/L)	Comment Code: Log of liquid dish neat product liquid-air partition coefficient
CC(=O)OCC=C(C)CCC=C(C)CCC=C(C)C [Material 368]	K (Log of liquid dish neat product liquid-air partition coefficient greater than or equal to −7)	–	–
C=CCCCCCCCCC(=O)OCCCC [Material 599]	–	K (Log of liquid dish neat product liquid-air partition coefficient greater than or equal to −7)	–
C/C=C1/CC2CC1C1CCC(=O)OC21 (centres unmarked) [Material 353]	K (Log of liquid dish neat product liquid-air partition coefficient greater than or equal to −7)	–	K (Log of liquid dish neat product liquid-air partition coefficient greater than or equal to −7)
C=CC(=C)CCC=C(C)CCC=C(C)C [Material 628]	–	K (Log of liquid dish neat product liquid-air partition coefficient greater than or equal to −7)	–
CC1=CCC(O)(C(C)C)CC1 (centres unmarked) [Material 800]	–	K (Log of liquid dish neat product liquid-air partition coefficient greater than or equal to −7)	–
CC(=O)C(C)=CC1C(C)=CCCC1(C)C (centres unmarked) [Material 703]	–	–	K (Log of liquid dish neat product liquid-air partition coefficient greater than or equal to −7)
C=C1CC[C@@H]2[C@H]([C@H]3[C@H]1CC[C@]3(C)O)C2(C)C [Material 1035]	–	K (Log of liquid dish neat product liquid-air partition coefficient greater than or equal to −7)	K (Log of liquid dish neat product liquid-air partition coefficient greater than or equal to −7)
CCCc1ccc(O)c(OC)c1 [Material 440]	–	–	K (Log of liquid dish neat product liquid-air partition coefficient greater than or equal to −7)
CNC(=O)C(C)(C(C)C)C(C)C [Material 846]	–	–	K (Log of liquid dish neat product liquid-air partition coefficient greater than or equal to −7)
CC/C=C\CCOC(=O)c1ccccc1 [Material 541]	K (Log of liquid dish neat product liquid-air partition coefficient greater than or equal to −7)	–	–
CCC(=O)OCC=Cc1ccccc1 [Material 548]	K (Log of liquid dish neat product liquid-air partition coefficient greater than or equal to −7)	–	–
CC(=O)OCC=Cc1ccccc1 [Material 553]	K (Log of liquid dish neat product liquid-air partition coefficient greater than or equal to −7)	–	–
CC1(C)CCc2ccc(CCC=O)cc21 [Material 260]	K (Log of liquid dish neat product liquid-air partition coefficient greater than or equal to −7)	–	K (Log of liquid dish neat product liquid-air partition coefficient greater than or equal to −7)
CC(=O)OC1CC2C3C=CCC3C1C2(C)C (centres unmarked) [Material 360]	K (Log of liquid dish neat product liquid-air partition coefficient greater than or equal to −7)	–	K (Log of liquid dish neat product liquid-air partition coefficient greater than or equal to −7)
CCCCC/C=C/C=C\C(=O)OCC [Material 942]	–	K (Log of liquid dish neat product liquid-air partition coefficient greater than or equal to −7)	–
CCOC(=O)C1C2C=CC(C2)C1C(C)C (centres unmarked) [Material 280]	K (Log of liquid dish neat product liquid-air partition coefficient greater than or equal to −7)	–	–
